In the METLIN SMRT retention time set (Domingo-Almenara et al. 2019):

Test: gradient 5% acetonitrile 3 min, to 50% in 2 min, to 85% in 15 min, held 3 min, 100 µL/min
Details: column: Zorbax Extend-C18 2.1 x 50 mm; eluents: water / acetonitrile, 0.1% formic acid
Procedure, shortened: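 Standards, all pure, were combined into mixtures of ~100 molecules and run at 100 μL/min on a Zorbax Extend-C18 column (2.1 × 50 mm, 1.8 μm) with water and acetonitrile, each containing 0.1% formic acid. A coupled quadrupole time-of-flight mass spectrometer operated in positive and negative ionization mode. Retention time values come from computationally picked adduct peaks, each inspected manually.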

| SMILES | RP-LC retention time [s] |
| --- | --- |
| CCc1ccccc1NS(=O)(=O)c1cc(-c2[nH]ncc2C(=O)N2CCOCC2)oc1C | 721 |
| CCN1CCN(CCNC(=O)c2cccn2-c2nnc(N3CCCCCC3)s2)CC1 | 600 |
| O=C(Cn1c(=O)oc2ccccc21)Nc1nc(-c2ccccc2)cs1 | 912 |
| Cc1c(CC(=O)NCc2cccnc2)c(=O)n2nc(-c3ccccc3)nc2n1C | 575 |
| CCN(CC)C(=O)c1cnc2snc(C)c2c1N1CCC(C(=O)Nc2ccc(C(C)C)cc2)CC1 | 1040 |
| COc1ccc(Cl)cc1N1CC(c2nc3ccccc3n2CC(=O)N2CCOCC2)CC1=O (centres undefined) | 662 |
| COc1ccc(CNC(=O)C2CCN(S(=O)(=O)c3ccc4c(c3)NC(=O)C(C)O4)CC2)cc1 (centres undefined) | 788 |
| CC(C)Cn1c(CCNC(=O)c2ccc(C#N)cc2)nc2cccnc21 | 709 |
| Cc1ccc(C)c(N2CCN(C(=O)C3CCN(c4cnc5nccnc5c4)CC3)CC2)c1 | 907 |
| CCN1CCCCc2cc(C(=O)NC(C)COC)sc21 (centres undefined) | 905 |
| CCCn1ccc2sc(C)c(C(=O)N(CC)Cc3ccccc3)c2c1=O | 884 |
| O=C(NCC1CC1)c1cn(-c2ncccc2-c2nc(-c3ccccc3)no2)cn1 | 848 |
| COc1ccc(CNC(=O)CN2CCc3[nH]c4c(C)cc(C)cc4c(=O)c3C2)cc1 | 629 |
| Cc1sc(NC(=O)CCCc2nc(-c3ccccc3)no2)nc1-c1ccc(Cl)cc1 | 1190 |
| CCCn1cc(C(=O)NCc2ccc(C)cc2)c(S(=O)(=O)N2CCC(C)CC2)n1 | 1140 |
| COc1ccc2c(c1)C13CCN(C)C(C2)C1CCC1(C3)OCCO1 (centres undefined) | 645 |
| COc1ccc(-c2cc(N3CCN(C(=O)Cc4ccc(Br)cc4)CC3)n[nH]2)cc1 | 842 |
| c1ccc(-c2cnn3cc(-c4ccc(OCCN5CCOCC5)cc4)cnc23)cc1 | 818 |
| CCCN(C)c1nccn2c(=O)n(CC(=O)Nc3ccc(C)c(F)c3)nc12 | 726 |
| COc1ccc(NC(=O)N2CCC(N3CCN(Cc4ccccc4)C3=O)CC2)c(OC)c1 | 796 |
| O=c1n(Cc2ccccc2)nc2n1CCN(S(=O)(=O)c1ccc3c(c1)OCCO3)CC2 | 818 |
| CC1(C(=O)NC2CCCC2)CN(S(=O)(=O)c2ccccc2)CC(=O)N1c1ccc(Cl)cc1 (centres undefined) | 950 |
| COc1cc2c(cc1Oc1ccc(OC)c3c1CC1c4c(cc(OC)c(OC)c4-3)CCN1C)CC1c3c(cc(OC)c(OC)c3-2)CCN1C (centres undefined) | 616 |

| SMILES | RP-LC retention time [s] |
| --- | --- |
| Cc1ccc(-c2noc(-c3nnc(NCCCN4CCOCC4)c4ccccc34)n2)cc1 | 735 |
| Cc1noc([C@@H]2CN(Cc3ccccc3C(F)(F)F)C[C@H]2CO)n1 | 604 |
| CCc1noc(NC(C)=O)c1-c1ccc(OC)c(S(=O)(=O)N2CC=C(c3ccccc3)CC2)c1 | 918 |
| COc1ccc(N2CCN(C(=S)Nc3ccc4nc(N5CCN(C)CC5)cc(C)c4c3)CC2)cc1 | 580 |
| COc1c(C(=O)NC(C)C)sc2cccc(F)c12 | 968 |
| CCOC(=O)c1cccc(N2C=C(C#N)S(=O)(=O)c3cc(F)ccc32)c1 | 937 |
| CN(C)S(=O)(=O)c1ccc(-c2nnc(C(=O)NCc3ccc(F)c(Cl)c3)o2)cc1 | 898 |
| Cc1cccc(CNS(=O)(=O)c2ccc(-c3c(C)noc3C)cc2)c1 | 983 |
| CCOC(=O)c1cnn2c(C(F)(F)F)cc(-c3ccc(F)cc3)nc12 | 1110 |
| Cc1cc(=O)n(CC(=O)Nc2ccc3c(c2)OCO3)c(N2CCc3ccccc3C2)n1 | 742 |
| CCCNc1cc(N2CCC(CCC(=O)NCc3ccccc3OC)CC2)ncn1 | 684 |
| CCN(C(=O)Cn1nc2cc(C)nc(Nc3ccc(C)c(C)c3)n2c1=O)c1ccccc1 | 1230 |
| O=C1NC(c2cccc3ccccc23)Nc2ccc(Cl)cc21 (centres undefined) | 847 |
| CCc1nc(-c2csc(S(=O)(=O)N3CCC(C(=O)NCc4cccc(C)c4)CC3)c2)no1 | 970 |
| Cc1ccc2nc(CN3CCN(C(=O)NCc4ccc(F)cc4)CC3)oc2c1 | 690 |
| COc1ccc(S(=O)(=O)Cc2nc(-c3ccc(Cl)cc3)no2)cc1 | 1030 |
| O=C(c1ccc(F)cc1)N1CCN(c2cc(-c3cccs3)[nH]n2)CC1 | 764 |
| CCOC(=O)Cc1sc(Nc2c(C)n[nH]c2C)nc1-c1ccccc1 | 688 |
| CCn1nc(C)c2ccnc(N3CCC(C(=O)N4CCN(c5ccccc5Cl)CC4)CC3)c21 | 812 |
| COc1ccccc1NC(=O)c1cn(CC2CCCO2)cc2c(=O)n(-c3ccccc3)nc1-2 (centres undefined) | 983 |
| CN(C)c1nn(CC(=O)NCc2cccc(C(F)(F)F)c2)cc1-c1ccccc1 | 984 |
| O=C1NC2(CCN(C(=O)NCCc3ccccc3)CC2)Nc2cc(Cl)ccc21 | 766 |

Other lines, results leading:

| RP-LC retention time [s] | SMILES |
| --- | --- |
| 989 | CC(C)OCCCNC(=O)c1cc2c(n(-c3ccc(C(C)C)cc3)c1=O)CCCC2=O |
| 655 | COCCNC(=O)Cn1c(=O)c2cccn2c2ccccc21 |
| 1160 | CCc1ccc(-c2noc(CN3C(=O)C(C)Oc4ccccc43)n2)cc1 (centres undefined) |
| 671 | CCOC(=O)CC(=O)CSc1ccc2nnc(-c3cccs3)n2n1 |
| 944 | O=C(C1CCN(c2nc3ccc(-c4ccc(F)cc4)nc3s2)CC1)N1CCCC1 |
| 897 | CCCCCNC(=O)c1cn(C)nc1S(=O)(=O)N1CCSCC1 |
| 761 | Cc1cccc(NC(=O)Nc2cnn(-c3ncncc3N3CCC(C)CC3)c2)c1 |
| 962 | O=C(NCc1csc(-c2ccccc2)n1)C1CCN(S(=O)(=O)c2cccc(Cl)c2)CC1 |
| 787 | C=CCN1C(=O)COc2ccc(-c3nc(NC(C)=O)sc3C)cc21 |
| 796 | Cc1c(C(=O)C(=O)Nc2ccccc2C(N)=O)c2ccccc2n1C |
| 739 | Cc1cc(NC(=O)c2c[nH]c3ncccc23)ccc1F |
| 833 | Cn1cccc1-c1cc2n(n1)CCC(=O)N2CCCC(=O)NCCCc1ccccc1 |
| 896 | CCc1nc2ccccc2c(=O)n1Cc1noc(-c2cncc(Br)c2)n1 |
| 632 | CCn1cc(-c2ccnc3[nH]c(-c4cccc(CN(C)C)c4)cc23)c(-c2ccc(NC(=O)N(C)C)cc2)n1 |
| 734 | O=C(NCc1cccs1)C1CCCN(S(=O)(=O)c2c[nH]c(C(=O)N3CCCC3)c2)C1 (centres undefined) |
| 574 | CCn1nccc1C(=O)NCCn1c(C)cnc1C1CCC1 |
| 829 | O=C(NCc1ccc2c(c1)CCN2C(=O)c1ccccc1)C1CCN(S(=O)(=O)N2CCCC2)CC1 |
| 796 | O=C(C1=CN(c2ccc3c(c2)OCO3)c2cc(F)ccc2S1(=O)=O)N1CCCC1 |
| 1000 | CCOC(=O)c1[nH]c(C)c(CN(CC2CCCO2)C(=O)c2ccc(Cl)cc2)c1C (centres undefined) |
